The source of these data is patent US6605637B1, “Lipoic acid derivatives, their preparation, and pharmaceutical compositions containing them” (Societe de Conseils de Recherches et d'Applications …, priority 1999, dated 2003).

The subject of this assay is HT-22 cells. Description: Protection of HT-22 cells from oxidation stress induced by glutamate (MTT viability). The format is cell-based. The settings on record: HT-22 mouse hippocampal line; glutamate 5 mM; viability after 24 h by MTT. As for the experimental part:
Study of the Effects on the Oxidation Stress Induced by Glutamate on Cells in Culture (HT-22).
The inhibitory activity of the products of the invention is determined by measuring their ability to protect the cells of a mouse hippocampal line (HT-22) of an oxidation stress caused by glutamate. The biosynthesis of glutathione, an essential element of cell detoxification of free radicals, requires the active transport of cystine to the interior of the cell. The glutamate by opposing the penetration of cystine causes a reduction in the level of glutathione which leads to the death of the cell due to oxidation stress (Davis, J. B. and Maher, P., Brain Res., (1994) 652: 169-173; Murphy, T. H. et al., Neuron, (1989) 2: 1547-1558). The cells are cultured at 37° C. in a DMEM medium with 10% of foetal calf serum added to it. The tests are carried out in 96-well plates containing 5000 cells per well. The glutamate (5 mM) is added to the medium containing or not containing the products to be tested. The cell viability is tested after 24 h by the MTT method (Hansen, M. B. et al., J Immunol. Methods (1989), 119, 203-210). The ability of the compounds to protect the cells from the toxic action of the glutamate is estimated in EC50, calculated relative to the viability of cells which have not been subjected to the action of glutamate considered as 100% viability.

Molecules are shown by their SMILES. Structures can show the parent of a compound that is named as a salt.

`N=C(Nc1ccc(NC(=O)CCCCC2CCSS2)cc1)c1cccs1` (stereo not shown) [Example 1, N-{4-[[(2-Thienyl)(imino)methyl]amino]phenyl}-1,2-dithiolane-3-pentanamide Hydrochloride] gave an EC50 below 30 µM. `N=C(Nc1ccc(CCNC(=O)CCCCC2CCSS2)cc1)c1cccs1` (stereo not shown) [Example 2, N-{2-{4[[(2-Thienyl)(imino)methyl]amino]phenyl}ethyl}-1,2-dithiolane-3-pentanamide]: the EC50 is below 30 µM. As to `N=C(Nc1ccc(CCNC(=O)CC2CCSS2)cc1)c1cccs1` (stereo not shown) [Example 3, N-{2-{4[[(2-Thienyl)(imino)methyl]amino]phenyl}ethyl}-1,2-dithiolane-3-acetamide Hydrochloride], the EC50 was below 30 µM.

In turn, `Cc1cc(N)nc(CCCCNC(=O)CC2CCSS2)c1` (stereo not shown) [Example 5, N-[4-(6-Amino-4-methyl-2-pyridinyl)butyl]-1,2-dithiolane-3-acetamide Fumarate] gave a concentration giving a half-maximal response (EC50) below 30 µM.
